One assay addresses T1, histamine H1 receptor (Cavia porcellus, UniProt P31389).
T1 construct: performed in guinea pig cerebellum membranes as described previously; from tissue; host or cells: guinea pig cerebellum membranes
As to the kind of experiment: Histamine-H1 receptor binding assay. The following applies: guinea pig cerebellum membranes, 0.7 nM [3H]-mepyramine, 30 min at 30° C. How it is done: (1) In vitro histamine H1 receptor binding assay, to measure the affinity of the compounds. […] Briefly, the membrane suspensions (160 μg/ml) were incubated at 30° C. with 0.7 nM [^3H]-mepyramine and different concentrations of the test compounds in a final volume of 250 μl. Binding reactions were terminated by filtration after 30 min of incubation and the bound radioactivity was determined. The non-specific binding was measured in the presence of 10 μM of promethazine. The affinity of each test compound to the receptor was determined by using at least six different concentrations run in duplicate. IC50 values were obtained by non-linear regression by use of SAS on a DEC AXP computer.

The test system of assay [1] is Histamine-induced skin vascular permeability in rats. As to the kind of experiment: Histamine-induced skin vascular permeability in rats. It is filed as in vivo. The following applies: Rattus norvegicus, 4 h; Male Wistar rats, oral, dose of 3 mg/Kg, four hours after administration, compared with vehicle treated group. Here is the method:
Either one, four, eight or 24 hours later the rats were lightly anaesthetized with ether and a cutaneous reaction was induced by two intradermal injections of 50 μl of histamine (100 μg/ml) onto the back, followed by a intravenous injection of 3 ml/kg of Evan's Blue (5 mg/ml), both dissolved in saline. Sixty minutes later, the rats were killed by cervical dislocation and the back skin dissected free. The diameter (in millimetres) of the papule was measured in two directions and the area was calculated.

The record followed here is patent US7622480B2, “Azaindolylpiperidine derivatives as antihistaminic and antiallergic agents” (Laboratorios Almirall S.A., priority 2002, dated 2009).

The term IC50 denotes the concentration that gives 50% inhibition. Broadly, the inhibition in vivo is the share of the control response that was lost under treatment.

Structures are written as SMILES.

T1 sequence (P31389 whole entry): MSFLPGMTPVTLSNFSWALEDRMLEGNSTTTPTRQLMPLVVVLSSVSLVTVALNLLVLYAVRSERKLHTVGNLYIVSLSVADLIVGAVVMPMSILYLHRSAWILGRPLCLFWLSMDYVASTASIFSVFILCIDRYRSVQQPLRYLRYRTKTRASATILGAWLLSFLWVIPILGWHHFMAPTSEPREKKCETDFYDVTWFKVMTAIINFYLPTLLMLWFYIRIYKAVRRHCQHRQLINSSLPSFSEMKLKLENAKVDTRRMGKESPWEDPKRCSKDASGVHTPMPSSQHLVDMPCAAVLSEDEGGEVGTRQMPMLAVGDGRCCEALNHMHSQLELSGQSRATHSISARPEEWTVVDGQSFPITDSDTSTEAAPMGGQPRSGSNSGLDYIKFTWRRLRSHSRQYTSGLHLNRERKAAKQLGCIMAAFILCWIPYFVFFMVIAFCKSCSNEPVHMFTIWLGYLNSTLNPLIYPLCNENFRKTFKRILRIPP

`COCCn1cc(C2CCN(Cc3cccc(C(=O)O)c3)CC2)c2cccnc21` [Example 1, 3-{4-[1-(2-methoxyethyl)-1H-pyrrolo[2,3-b]pyridin-3-yl]piperidin-1-ylmethyl}benzoic acid] gave an IC50 on histamine H1 receptor of 240 nM. The inhibition in vivo at 3 mg/kg in assay [1] is over 50%.
Turning to `COc1ccc(CN2CCC(c3cn(Cc4ccco4)c4cnccc34)CC2)cc1C(=O)O` [Example 96, 5-[4-(1-furan-2-ylmethyl-1H-pyrrolo[2,3-c]pyridin-3-yl)-piperidin-1-ylmethyl]-2-methoxybenzoic acid], the half-inhibitory concentration (IC50) at histamine H1 receptor was determined as 805 nM.
In the case of `CCOCCn1cc(C2CCN(CCOc3ccccc3C(=O)O)CC2)c2cccnc21` [Example 6], the IC50 on histamine H1 receptor was 190 nM. Besides, the inhibition in vivo at 3 mg/kg in assay [1] is over 50%.
In turn, `O=C(O)c1ccccc1OCCN1CCC(c2cn(Cc3ccsc3)c3ncccc23)CC1` [Example 14, 2-{2-[4-(1-thiophen-3-ylmethyl-1H-pyrrolo[2,3-b]pyridin-3-yl)-piperidin-1-yl]-ethoxy}-benzoic acid] gave an IC50 at histamine H1 receptor of 510 nM.
Consider `CCCCn1cc(C2CCN(Cc3ccc(OC)c(C(=O)O)c3)CC2)c2cccnc21` [Example 24, 5-[4-(1-butyl-1H-pyrrolo[2,3-b]pyridin-3-yl)piperidin-1-ylmethyl]-2-methoxybenzoic acid], for which, at histamine H1 receptor, the half-inhibitory concentration (IC50) was found to be 475 nM. The compound further had an inhibition in vivo at 3 mg/kg in assay [1] of over 50%.
On histamine H1 receptor, `O=C(O)c1ccccc1OCCN1CCC(c2cn(Cc3ccoc3)c3ncccc23)CC1` [Example 3, 2-{2-[4-(1-furan-3-ylmethyl-1H-pyrrolo[2,3-b]pyridin-3-yl)piperidine-1-yl]ethoxy}benzoic acid] came in with an IC50 of 225 nM. Also, in assay [1], the inhibition in vivo at 3 mg/kg was over 50%.
At histamine H1 receptor, `COc1ccc(C(=O)O)c(OCCN2CCC(c3cn(Cc4ccoc4)c4ncccc34)CC2)c1` [Example 43, 2-{2-[4-(1-furan-3-ylmethyl-1H-pyrrolo[2,3-b]pyridin-3-yl)piperidin-1-yl]-ethoxy}-4-methoxybenzoic acid] had an IC50 of 120 nM.
In turn, `CCCCn1cc(C2CCN(CCOc3cc(OC)ccc3C(=O)O)CC2)c2cccnc21` [Example 61, 2-{2-[4-(1-butyl-1H-pyrrolo[2,3-b]pyridin-3-yl)piperidin-1-yl]-ethoxy}-4-methoxybenzoic acid] returned a 50% inhibitory concentration (IC50) at histamine H1 receptor of 100 nM. Also, the inhibition in vivo at 3 mg/kg in assay [1] is over 50%.
The compound `COCCn1cc(C2CCN(CCOc3cccc(OC)c3C(=O)O)CC2)c2cccnc21` [Example 23, 2-methoxy-6-(2-{4-[1-(2-methoxyethyl)-1H-pyrrolo[2,3-b]pyridin-3-yl]-piperidin-1-yl}-ethoxy)benzoic acid] registered a 50% inhibitory concentration (IC50) at histamine H1 receptor of 275 nM.
On the same count and under the same terms, then `O=C(O)c1ccccc1OCCN1CCC(c2cn(Cc3cccs3)c3ncccc23)CC1` [Example 11, 2-{2-[4-(1-thiophen-2-ylmethyl-1H-pyrrolo[2,3-b]pyridin-3-yl)-piperidin-1-yl]-ethoxy}benzoic acid], with 505 nM; and `COc1cccc(C(=O)O)c1OCCN1CCC(c2cn(Cc3ccc(Cl)s3)c3ncccc23)CC1` [Example 54, 2-(2-{4-[1-(5-chlorothiophen-2-ylmethyl)-1H-pyrrolo[2,3-b]pyridin-3-yl]-piperidin-1-yl}-ethoxy)-3-methoxybenzoic acid], with 695 nM.
With `O=C(O)c1cccc(CN2CCC(c3cn(Cc4ccco4)c4ncccc34)CC2)c1` [Example 9, 3-[4-(1-furan-2-ylmethyl-1H-pyrrolo[2,3-b]pyridin-3-yl)piperidin-1-ylmethyl]-benzoic acid], the concentration for half-maximal inhibition (IC50) on histamine H1 receptor is 150 nM. This compound came in with an inhibition in vivo at 3 mg/kg in assay [1] of over 50%.
At histamine H1 receptor, `COc1ccc(CN2CCC(c3cn(Cc4ccc(Cl)s4)c4ncccc34)CC2)cc1C(=O)O` [Example 19, 5-{4-[1-(5-chlorothiophen-2-ylmethyl)-1H-pyrrolo[2,3-b]pyridin-3-yl]-piperidin-1-ylmethyl}2-methoxybenzoic acid] yielded an IC50 of 500 nM. Also, the inhibition in vivo at 3 mg/kg in assay [1] was over 50%.
On to `COc1ccc(CN2CCC(c3cn(Cc4ccco4)c4ncccc34)CC2)cc1C(=O)O` [Example 10, 5-[4-(1-furan-2-ylmethyl-1H-pyrrolo[2,3-b]pyridin-3-yl)piperidin-1-ylmethyl]-2methoxy-benzoic acid], for which the 50% inhibitory concentration (IC50) at histamine H1 receptor was 335 nM. The compound further yielded an inhibition in vivo at 3 mg/kg in assay [1] of over 50%.
For `COc1ccc(C(=O)O)c(OCCN2CCC(c3cn(Cc4ccco4)c4ncccc34)CC2)c1` [Example 50, 2-{2-[4-(1-furan-2-ylmethyl-1H-pyrrolo[2,3-b]pyridin-3-yl)-piperidin-1-yl]-ethoxy}-4-methoxybenzoic acid], the IC50 on histamine H1 receptor came to 48 nM.
`CCCCn1cc(C2CCN(Cc3ccc(F)c(C(=O)O)c3)CC2)c2cccnc21` [Example 64, 5-[4-(1-butyl-1H-pyrrolo[2,3-b]pyridin-3-yl)-piperidin-1-ylmethyl]-2-fluorobenzoic acid] showed an IC50 on histamine H1 receptor of 380 nM. Compared with the last compound, the IC50 is about 7.9-fold higher.
In turn, `O=C(O)c1ccc(Cl)cc1OCCN1CCC(c2cn(Cc3ccc(Cl)s3)c3cnccc23)CC1` [Example 92, 4-chloro-2-(2-{4-[1-(5-chlorothiophen-2-ylmethyl)-1H-pyrrolo[2,3-c]pyridin-3-yl]-piperidin-1-yl}-ethoxy)-benzoic acid] yielded a half-maximal inhibitory concentration (IC50) on histamine H1 receptor of 105 nM.
At histamine H1 receptor, `O=C(O)c1cc(CN2CCC(c3cn(Cc4ccoc4)c4ncccc34)CC2)ccc1F` [Example 45, 2-fluoro-5-[4-(1-furan-3-ylmethyl-1H-pyrrolo[2,3-b]pyridin-3-yl)-piperidin-1-ylmethyl]-benzoic acid] showed an IC50 of 255 nM.
At histamine H1 receptor, `CCCCn1cc(C2CCN(Cc3cccc(C(=O)O)c3)CC2)c2cccnc21` [Example 26, 3-[4-(1-butyl-1H-pyrrolo[2,3-b]pyridin-3-yl)piperidin-1-ylmethyl]-benzoic acid] displayed an IC50 of 275 nM. This IC50 and that of the compound before are within 1.5-fold of each other.
Consider `CCOCCn1cc(C2CCN(CCOc3cc(OC)ccc3C(=O)O)CC2)c2cccnc21` [Example 36, 2-(2-{4-[1-(2-ethoxyethyl)-1H-pyrrolo[2,3-b]pyridin-3-yl]-piperidin-1-yl}-ethoxy)-4-methoxybenzoic acid], for which the IC50 at histamine H1 receptor turned out to be 160 nM. Also, the inhibition in vivo at 3 mg/kg in assay [1] was over 50%.
For `O=C(O)c1ccccc1OCCN1CCC(c2cn(Cc3ccco3)c3ncccc23)CC1` [Example 8, 2-{2-[4-(1-furan-2-ylmethyl-1H-pyrrolo[2,3-b]pyridin-3-yl)-piperidin-1-yl]-ethoxy}-benzoic acid], the IC50 on histamine H1 receptor stood at 405 nM. In assay [1], this compound returned an inhibition in vivo at 3 mg/kg of over 50%.
As to `CCCCn1cc(C2CCN(CCOc3ccccc3C(=O)O)CC2)c2ccncc21` [Example 81, 2-{2-[4-(1-butyl-1H-pyrrolo[2,3-c]pyridin-3-yl)-piperidin-1-yl]-ethoxy}-benzoic acid], the half-maximal inhibitory concentration (IC50) on histamine H1 receptor came to 220 nM.
Consider `CCCCn1cc(C2CCN(CCOc3cc(Cl)ccc3C(=O)O)CC2)c2cccnc21` [Example 63, 2-{2-[4-(1-butyl-1H-pyrrolo[2,3-b]pyridin-3-yl)-piperidin-1-yl]-ethoxy}-4-chlorobenzoic acid], for which the half-maximal inhibitory concentration (IC50) at histamine H1 receptor was determined as 110 nM. This IC50 is about 2-fold lower than that of the compound before.
The same measure, in the same setting: then `O=C(O)c1cccc(CN2CCC(c3cn(CC4CC4)c4ncccc34)CC2)c1` [Example 28, 3-[4-(1-cyclopropylmethyl-1H-pyrrolo[2,3-b]pyridin-3-yl)-piperidin-1-ylmethyl]-benzoic acid], with 520 nM.
The same measure, in the same setting: then `CCOCCn1cc(C2CCN(CCOc3c(OC)cccc3C(=O)O)CC2)c2cccnc21` [Example 37, 2-(2-{4-[1-(2-ethoxyethyl)-1H-pyrrolo[2,3-b]pyridin-3-yl]-piperidin-1-yl}-ethoxy)-3-methoxybenzoic acid], with 155 nM; and `COc1ccc(C(=O)O)c(OCCN2CCC(c3cn(Cc4ccoc4)c4cnccc34)CC2)c1` [Example 76, 2-{2-[4-(1-furan-3-ylmethyl-1H-pyrrolo[2,3-c]pyridin-3-yl)-piperidin-1-yl]-ethoxy}-4-methoxybenzoic acid], with 675 nM.
Same read-out and setting: then `O=C(O)c1cccc(CN2CCC(c3cn(Cc4ccc(Cl)s4)c4ncccc34)CC2)c1` [Example 18, 3-{4-[1-(5-chlorothiophen-2-ylmethyl)-1H-pyrrolo[2,3-b]pyridin-3-yl]-piperidin-1-ylmethyl}-benzoic acid], with 315 nM.
As to `COCCn1cc(C2CCN(Cc3c(OC)ccc(C(=O)O)c3OC)CC2)c2cccnc21` [Example 22, 2,4-dimethoxy-3-{4-[1-(2-methoxyethyl)-1H-pyrrolo[2,3-b]pyridin-3-yl]-piperidin-1-ylmethyl}-benzoic acid], on histamine H1 receptor, the half-maximal inhibitory concentration (IC50) came to 235 nM. This IC50 and that of the compound before are within 1.5-fold of each other.
For `O=C(O)c1ccccc1OCCN1CCC(c2cn(Cc3ccc(Cl)s3)c3ncccc23)CC1` [Example 17, 2-(2-{4-[1-(5-chlorothiophen-2-ylmethyl)-1H-pyrrolo[2,3-b]pyridin-3-yl]-piperidin-1-yl}-ethoxy)-benzoic acid], on histamine H1 receptor, the IC50 came out at 265 nM.
The same measure, in the same setting: then `CCOCCn1cc(C2CCN(CCOc3cc(Cl)ccc3C(=O)O)CC2)c2ccncc21` [Example 73, 4-chloro-2-(2-{4-[1-(2-ethoxyethyl)-1H-pyrrolo[2,3-c]pyridin-3-yl]-piperidin-1-yl}-ethoxy)-benzoic acid], with 111 nM; and `CCCCn1cc(C2CCN(CCOc3cc(Cl)ccc3C(=O)O)CC2)c2ccncc21` [Example 84, 2-{2-[4-(1-butyl-1H-pyrrolo[2,3-c]pyridin-3-yl)piperidin-1-yl]-ethoxy}-4-chlorobenzoic acid], with 74 nM.
